Experiments:
[1] = system: antibodies to HCY Oxime-BTG (example 4a); format: binding, mice
[2] = system: monoclonal antibody to HCY Oxime-KLH (example 4b); format: binding, mice

O=C(O)CCCc1ccc(N(CCCl)CCCl)cc1 [Chlorambucil, chlorambucil]
% Cross-Reactivity [1]: <0.3% | IC 50 [1]: >10,000 ng/ml | % Cross-Reactivity [2]: <0.1% | IC 50 [2]: >100,000 ng/ml

N[C@@H](Cc1ccc(N(CCCl)CCCl)cc1)C(=O)O [Melphalan, melphalan]
% Cross-Reactivity [1]: <0.3% | IC 50 [1]: >10,000 ng/ml | % Cross-Reactivity [2]: <0.1% | IC 50 [2]: >100,000 ng/ml

O=P1(N(CCCl)CCCl)NCCCO1 (stereo not drawn) [cyclophosphamide]
% Cross-Reactivity [1]: <0.3% | IC 50 [1]: >10,000 ng/ml | % Cross-Reactivity [2]: <0.1% | IC 50 [2]: >100,000 ng/ml
